According to US9957236B2, “Selective inhibitors interfering with fibroblast growth factor receptor and FRS2 interaction for the prevention and treatment of cancer and other diseases” (LIMITED LIABILITY COMPANY “RUSSIAN PHARMACEUTICAL …, priority 2014, dated 2018):
One block for each compound: values may come before it.

Columns and labels:
HUVEC = test: Proliferation of endothelial cells HUVEC with FGF-2; assay type: cell-based; settings: Homo sapiens, FGF-2 25 ng/ml, 96 hours, read-out: Cell growth suppression, IC50
Method: Endothelial cells HUVEC were sawn in 96-cavity plates and cultivate for 24 hours. After that, the following was added to the cells: • 1) inhibitor RPT835, or • 2) inhibitor described by Formula IX in this invention, or • 3) brivanib—multi-kinase inhibitor of FGFR/VEGFR, and also to all cells—FGF-2 in a concentration of 25 ng/ml.
The cells were cultivated for 96 hours in general and then were calculated.

[1] = system: collagen-induced arthritis; test: Collagen-induced arthritis model; assay type: in vivo; settings: mice, 100 mg/kg through a tube for 40 days
Method: Collagen-induced arthritis model was used in the research. Arthritic was induced in mice by intradermal injections of collagen of the II type combined with Freund's adjuvant. The mice were randomized into 2 groups of 5 animals in each one: • group 1: control, water through a tube for 40 days. • group 2: inhibitor described by formula III in this invention, 100 mg/kg, through a tube for 40 days. On the 40 day, the mice were subjected to euthanasia, the tissue was studied.

FRS2 [2] = biological target: T1, FRS2 (Homo sapiens, UniProt Q8WU20); test: FRS2 phosphorylation in FGF-2-stimulated Snu16 cells (Western blotting); assay type: cell-based; set-up: endogenous in cells; host or cells: Snu16; settings: FGF-2 stimulation
T1 sequence (Q8WU20 1-508): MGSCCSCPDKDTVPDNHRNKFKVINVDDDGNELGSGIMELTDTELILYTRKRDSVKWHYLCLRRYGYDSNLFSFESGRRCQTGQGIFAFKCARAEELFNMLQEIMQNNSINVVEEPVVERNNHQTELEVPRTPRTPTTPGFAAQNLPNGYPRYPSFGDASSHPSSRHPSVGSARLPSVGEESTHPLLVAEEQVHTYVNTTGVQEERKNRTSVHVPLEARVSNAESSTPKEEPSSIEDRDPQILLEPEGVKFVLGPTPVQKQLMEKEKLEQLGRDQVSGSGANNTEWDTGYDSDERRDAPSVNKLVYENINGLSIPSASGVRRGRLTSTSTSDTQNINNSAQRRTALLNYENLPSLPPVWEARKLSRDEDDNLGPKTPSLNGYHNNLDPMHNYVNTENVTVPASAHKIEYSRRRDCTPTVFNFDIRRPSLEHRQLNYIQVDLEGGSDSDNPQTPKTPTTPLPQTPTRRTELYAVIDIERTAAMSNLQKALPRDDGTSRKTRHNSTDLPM
Method: By way of chemical synthesis we received the specified compounds. Stomach cancer cells Snu16 expressing FGFR2 were cultivated according to the standard method. A part of the cells was left for negative control, FGF-2 was added to the other part (positive control). Therapeutic groups included: addition of the inhibitor according to formula V and subsequent stimulation of FGF-2, addition of the inhibitor according to formula IX and subsequent stimulation of FGF-2, addition of the inhibitor according to formula XI and subsequent stimulation of FGF-2. The Western-blotting method was used for assessment of the phosphorylation level of various kinases.

p44/42(MAPK), Akt, mTOR = test: Western blotting of other kinases in HUVEC, Caki-1, KATO III cells; assay type: cell-based
Method: (§1) According to the procedure described above, the phosphorylation levels of type 1-3 fibroblast growth factor receptors, FRS2, and also phosphorylation levels of VEGFR1 and intracellular kinases PI3K, p44/42(MAPK), Akt, mTOR were analyzed by the Western-blotting method.
(§2) Endothelial cells HUVEC, human renal cell carcinoma of Caki-1 type, stomach cancer cells KATO III were used in the research. All the mentioned cells expressed various types of the mentioned receptors. Just like in Example 5, a part of the cells stimulated FGF-2 and/or VEGF-A, a part of the cells was cultivated with the inhibitor described by Formula VIII, a part of the cells left without stimulation and treatment.

FGFR2 [3] = biological target: FGFR2 (Homo sapiens, UniProt P21802); test: Western blotting of FGFR2 phosphorylation in HUVEC, Caki-1, KATO III cells; assay type: cell-based
Chain of FGFR2 (Homo sapiens, UniProt P21802) (P21802 22-821, species assumed): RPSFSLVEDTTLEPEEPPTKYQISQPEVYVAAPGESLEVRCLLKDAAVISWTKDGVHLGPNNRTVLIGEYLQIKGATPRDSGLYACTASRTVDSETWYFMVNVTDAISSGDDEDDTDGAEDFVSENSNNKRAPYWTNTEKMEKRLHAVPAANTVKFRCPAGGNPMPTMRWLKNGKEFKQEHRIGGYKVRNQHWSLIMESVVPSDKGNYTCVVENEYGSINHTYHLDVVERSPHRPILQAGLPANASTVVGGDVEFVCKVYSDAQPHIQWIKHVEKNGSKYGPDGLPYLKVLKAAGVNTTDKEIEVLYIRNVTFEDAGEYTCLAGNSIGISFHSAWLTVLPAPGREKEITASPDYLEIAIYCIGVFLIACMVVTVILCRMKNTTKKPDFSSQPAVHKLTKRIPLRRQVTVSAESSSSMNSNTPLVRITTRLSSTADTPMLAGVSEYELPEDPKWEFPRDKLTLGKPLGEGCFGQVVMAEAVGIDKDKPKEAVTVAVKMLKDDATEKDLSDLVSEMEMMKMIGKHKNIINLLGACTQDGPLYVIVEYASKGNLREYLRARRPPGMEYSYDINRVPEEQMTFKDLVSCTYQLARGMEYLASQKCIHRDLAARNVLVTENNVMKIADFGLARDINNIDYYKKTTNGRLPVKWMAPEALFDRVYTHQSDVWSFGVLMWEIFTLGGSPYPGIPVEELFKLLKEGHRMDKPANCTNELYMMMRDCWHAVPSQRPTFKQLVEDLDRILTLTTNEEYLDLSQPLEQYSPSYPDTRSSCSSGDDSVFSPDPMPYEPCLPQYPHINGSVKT
Method: as §1, §2

PI3K = test: Western blotting of PI3K phosphorylation in HUVEC, Caki-1, KATO III cells; assay type: cell-based; settings: P=0.017
Method: as §1, §2

FGFR1 = biological target: T2, FGFR1 (Homo sapiens, UniProt P11362); test: Western blotting of FGFR1 phosphorylation in HUVEC, Caki-1, KATO III cells; assay type: cell-based
T2 construct: endogenous in cells; host or cells: HUVEC, Caki-1, KATO III
T2 sequence (P11362 22-822): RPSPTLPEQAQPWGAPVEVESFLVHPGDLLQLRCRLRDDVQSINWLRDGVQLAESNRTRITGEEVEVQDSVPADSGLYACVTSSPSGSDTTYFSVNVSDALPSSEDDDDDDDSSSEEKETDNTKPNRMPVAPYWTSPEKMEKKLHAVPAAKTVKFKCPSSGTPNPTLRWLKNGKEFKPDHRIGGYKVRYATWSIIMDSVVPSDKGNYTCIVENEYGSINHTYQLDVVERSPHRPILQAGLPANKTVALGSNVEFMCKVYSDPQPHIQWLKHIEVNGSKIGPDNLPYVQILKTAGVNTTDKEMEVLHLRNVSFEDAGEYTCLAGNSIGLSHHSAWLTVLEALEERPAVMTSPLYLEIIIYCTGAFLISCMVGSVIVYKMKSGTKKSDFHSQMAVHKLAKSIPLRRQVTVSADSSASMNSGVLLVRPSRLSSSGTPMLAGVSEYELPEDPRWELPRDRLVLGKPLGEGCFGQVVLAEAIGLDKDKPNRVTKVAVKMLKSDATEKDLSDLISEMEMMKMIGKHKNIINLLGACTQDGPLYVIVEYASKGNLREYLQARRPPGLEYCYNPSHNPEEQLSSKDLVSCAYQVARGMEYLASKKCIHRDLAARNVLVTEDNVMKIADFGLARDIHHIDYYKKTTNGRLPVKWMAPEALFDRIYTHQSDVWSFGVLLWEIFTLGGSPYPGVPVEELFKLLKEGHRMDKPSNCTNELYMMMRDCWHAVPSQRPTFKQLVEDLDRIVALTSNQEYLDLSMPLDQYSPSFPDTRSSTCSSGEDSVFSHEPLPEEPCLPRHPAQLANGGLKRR
Method: as §1, §2

VEGFR1 = biological target: T3, VEGFR1 (Homo sapiens, UniProt P17948); test: Western blotting of VEGFR1 phosphorylation in HUVEC, Caki-1, KATO III cells; assay type: cell-based
T3 construct: endogenous in cells; host or cells: HUVEC, Caki-1, KATO III
T3 sequence (P17948 27-1338): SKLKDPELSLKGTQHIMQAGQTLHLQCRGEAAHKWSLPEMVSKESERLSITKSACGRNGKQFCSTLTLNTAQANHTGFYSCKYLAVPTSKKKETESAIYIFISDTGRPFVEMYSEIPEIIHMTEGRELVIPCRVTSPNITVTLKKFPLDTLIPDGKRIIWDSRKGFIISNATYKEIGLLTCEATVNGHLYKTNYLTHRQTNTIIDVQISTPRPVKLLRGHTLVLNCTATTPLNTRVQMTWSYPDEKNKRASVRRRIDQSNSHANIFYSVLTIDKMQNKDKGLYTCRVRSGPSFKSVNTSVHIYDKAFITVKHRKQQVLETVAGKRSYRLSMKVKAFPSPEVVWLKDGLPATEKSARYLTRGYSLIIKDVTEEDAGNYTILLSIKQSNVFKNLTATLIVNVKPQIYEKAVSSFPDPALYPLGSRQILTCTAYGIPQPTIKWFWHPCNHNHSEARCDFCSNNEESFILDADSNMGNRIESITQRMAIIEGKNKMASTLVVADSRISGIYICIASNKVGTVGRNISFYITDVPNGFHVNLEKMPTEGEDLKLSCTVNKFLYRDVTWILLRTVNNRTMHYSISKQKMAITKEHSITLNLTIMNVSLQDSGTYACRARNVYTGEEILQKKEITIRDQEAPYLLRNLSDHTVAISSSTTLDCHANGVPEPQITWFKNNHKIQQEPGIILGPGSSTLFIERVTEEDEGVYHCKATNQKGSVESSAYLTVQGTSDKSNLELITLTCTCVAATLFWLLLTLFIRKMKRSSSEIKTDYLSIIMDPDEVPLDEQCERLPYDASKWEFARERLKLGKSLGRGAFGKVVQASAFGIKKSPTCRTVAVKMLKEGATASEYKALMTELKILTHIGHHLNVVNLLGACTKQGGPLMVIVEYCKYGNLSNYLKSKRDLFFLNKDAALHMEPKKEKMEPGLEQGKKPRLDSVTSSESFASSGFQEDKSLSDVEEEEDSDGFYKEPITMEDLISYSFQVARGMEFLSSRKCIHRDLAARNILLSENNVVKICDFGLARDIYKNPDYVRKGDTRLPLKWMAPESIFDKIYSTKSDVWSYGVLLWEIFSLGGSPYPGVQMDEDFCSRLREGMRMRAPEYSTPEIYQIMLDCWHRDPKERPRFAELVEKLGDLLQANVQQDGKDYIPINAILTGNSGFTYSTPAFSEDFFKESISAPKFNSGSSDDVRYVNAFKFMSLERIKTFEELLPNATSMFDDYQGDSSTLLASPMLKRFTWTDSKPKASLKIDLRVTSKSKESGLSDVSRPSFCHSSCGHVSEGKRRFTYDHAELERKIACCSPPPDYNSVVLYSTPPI
Method: as §1, §2

FGFR3 = biological target: T4, FGFR3 (Homo sapiens, UniProt P22607); test: Western blotting of FGFR3 phosphorylation in HUVEC, Caki-1, KATO III cells; assay type: cell-based
T4 construct: endogenous in cells; host or cells: HUVEC, Caki-1, KATO III
T4 sequence (P22607 23-806): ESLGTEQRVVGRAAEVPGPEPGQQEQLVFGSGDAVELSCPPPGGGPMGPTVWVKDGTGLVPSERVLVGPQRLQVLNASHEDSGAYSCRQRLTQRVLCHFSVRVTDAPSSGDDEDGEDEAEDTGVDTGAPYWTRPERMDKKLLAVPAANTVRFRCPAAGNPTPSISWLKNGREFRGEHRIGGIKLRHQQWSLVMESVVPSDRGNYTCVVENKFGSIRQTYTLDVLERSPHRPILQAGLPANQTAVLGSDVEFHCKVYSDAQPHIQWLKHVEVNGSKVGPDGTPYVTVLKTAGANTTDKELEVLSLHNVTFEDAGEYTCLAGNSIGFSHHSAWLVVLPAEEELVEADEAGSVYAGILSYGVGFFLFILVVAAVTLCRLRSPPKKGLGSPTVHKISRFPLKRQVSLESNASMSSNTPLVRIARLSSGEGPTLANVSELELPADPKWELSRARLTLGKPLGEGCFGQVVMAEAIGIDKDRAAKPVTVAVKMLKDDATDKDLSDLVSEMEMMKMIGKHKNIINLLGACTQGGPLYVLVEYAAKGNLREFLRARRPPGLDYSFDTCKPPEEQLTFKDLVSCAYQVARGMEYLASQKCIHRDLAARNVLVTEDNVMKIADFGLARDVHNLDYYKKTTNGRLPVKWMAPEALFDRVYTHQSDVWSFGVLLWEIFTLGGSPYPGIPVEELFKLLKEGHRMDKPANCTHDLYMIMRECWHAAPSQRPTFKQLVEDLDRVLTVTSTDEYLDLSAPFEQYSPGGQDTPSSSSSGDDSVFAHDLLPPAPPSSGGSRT
Method: as §1, §2

FRS2 [4] = biological target: T1, FRS2; test: Western blotting of FRS2 phosphorylation in HUVEC, Caki-1, KATO III cells; assay type: cell-based; set-up: endogenous in cells; settings: P=0.001
Method: as §1, §2

FRS2α and FRS2β = test: Automated Western blotting of FRS2α and FRS2β phosphorylation in Snu16 cells; assay type: cell-based; settings: FGF-2 stimulation
Method: (§3) Stomach cancer cells Snu16 were sawn in 96-cavity plates with a size of 90 mcl/cavity. After 24 hours of incubation in a damped incubator at a temperature of 37 C, 5% CO2 and 95% air to cells were the tested dissolved agent described by formula VI in the volume of 100 mcg/ml, and then FGF-2 was added as a stimulator.
(§4) After the days of cultivation by the method of automated Western-blotting, the phosphorylation level of the following proteins: FGFR2, FRS2α, FRS2β, Shp2, Grb2 was studied in the cells. After another 24 hours of the cultivation, the cells were counted.

Snu16 cells = test: Proliferation of stomach cancer cells Snu16 (cell count); assay type: cell-based
Method: as §3, §4
After the next cultivation the number of the cells equaled between the groups, and also with the control (stimulation of FGF-2, without cultivation with the inhibitor). See the results in Table 1.

Shp2 and Grb2 = test: Automated Western blotting of Shp2 and Grb2 phosphorylation in Snu16 cells; assay type: cell-based; settings: noted in some cells
Method: as §3, §4

FGFR2 [5] = test: Automated Western blotting of FGFR2 phosphorylation in Snu16 cells; assay type: cell-based; settings: 100 mcg/ml, FGF-2 stimulation
Method: as §3, §4

[6] = system: angiogenesis in the implants containing VEGF; test: Matrigel implant angiogenesis stimulated by VEGF; assay type: in vivo; settings: Matrigel implants in mice; 10 mg/kg intraperitoneally day 0, 3, 6; p<0.001
Method: (§5) Eighteen hybrid mice of the 1 generation F1 (C57B1/6×DBA/2), males with a weight of 22-30 g are used in the research. The mice (nomenclature number M02.13.00011) were received from a branch of nursery “Stolbovaya”. The method described earlier was used in the experiment [Passaniti A., 1992]. The control and experiment groups had at least 3 mice. Aliquots (1,000 mcl) of Matrigel (BD Biosciences) containing heparin 60 conventional units/ml, VEGF (200 ng/ml, BD Biosciences) or bFGF (100 ng/ml, BD Biosciences) were prepared on ice. Matrigel containing heparin 60 conventional units/ml was used as negative control. Matrigel was injected in the mice subcutaneously into the side part of the back. After injection, Matrigel quickly forms single, hard gel-like implant. A weight of the inhibitor was dissolved in DMSO to concentration of 10^−2M. Aliquots were frozen down to −20° C. and unfrozen immediately before injection. Refreezing of the solution was not allowed. The tested and standard objects were administered intraperitoneally on the 0, 3 and 6 day of Matrigel impintation: Bevacizumab in a dose of 10 mg/kg and RPT835-15 mg/kg. Seven days after administration of Matrigel, the mice were put into sleep with diethyl ether to remove the implant. The implants were fixed for 24-36 hours in 10% neutral formalin and enclosed in paraffin for further histological research.

[7] = system: angiogenesis stimulated by bFGF; test: Matrigel implant angiogenesis stimulated by bFGF; assay type: in vivo, mice; settings: Matrigel implants in mice; intraperitoneally day 0, 3, 6; RPT835 15 mg/kg, Bevacizumab 10 mg/kg
Method: as §5

Compound: Cc1cc2c(F)c(Oc3ncnn4cc(OC[C@@H](C)O)c(C)c34)ccc2[nH]1 [Brivanib, reference compound]
- IC50 (HUVEC): 289 nM

Compound: Cc1cc([N+](=O)[O-])c(NS(=O)(=O)c2cccc(C(=O)O)c2)cc1-c1cncnc1 [Inhibitor III, 3-(N-(4-methyl-2-nitro-5-(pyrimidin-5-yl)phenyl)sulfamoyl)benzoic acid]
- tissue findings (infiltration) [1]: Only insignificant infiltration with single neutrophils

Compound: CC1C(=O)Nc2ccccc2N1C(=O)c1cccc(C(=O)O)c1 (stereo not drawn) [Inhibitor IX, 3-(2-methyl-3-oxo-1,2,3,4-tetrahydroquinoxalyne-1-carbonyl)benzoic acid]
- IC50 (HUVEC): 32 nM
- transmission of the signal from FGFR to FRS2 (FRS2 [2]): interfere with transmission of the signal from FGFR to FRS2

Compound: Cc1cc(N)c(NS(=O)(=O)c2cccc(C(=O)O)c2)cc1-c1cncnc1 [Inhibitor V, 3-(N-(2-amino-4-methyl-5-(pyrimidin-5-yl)phenyl)sulfamoyl)benzoic acid]
- transmission of the signal from FGFR to FRS2 (FRS2 [2]): interfere with transmission of the signal from FGFR to FRS2

- decrease of phosphorylation of FGFR2 (weakly) (FGFR2 [3]): 1.5 times
- level of FGFR1 phosphorylation (FGFR1): even increased
- decrease of phosphorylation of VEGFR1 (weakly) (VEGFR1): 2.3 times
- decrease of phosphorylation of FGFR3 (weakly) (FGFR3): 1.8 times
- decrease of phosphorylation of FRS2 (FRS2 [4]): 14 times
Compound: O=C1CN(C(=O)c2cccc(C(=O)O)c2)c2ccccc2N1 [Inhibitor VIII, 3-(3-oxo-1,2,3,4-tetrahydroquinoxaline-1-carbonyl)benzoic acid]
- influence on other kinases (p44/42(MAPK), Akt, mTOR): did not have influence on other kinases
- decrease of phosphorylation of PI3K (PI3K): 10 times

- IC50 (FRS2α and FRS2β): < 10 nM
Compound: Cc1cc(NNc2cc(C)c(-c3cccnc3)cc2NS(=O)(=O)c2cccc(C(=O)O)c2)c(NS(=O)(=O)c2cccc(C(=O)O)c2)cc1-c1cccnc1 [Inhibitor VI]
- suppression of phosphorylation of FRS2α and FRS2β (FRS2α and FRS2β): 12 times
- proliferation compared with control group (Snu16 cells; group with phosphorylation suppression of FRS2 and Shp2 and/or Grb2, P < 0.0001): suppression,
- proliferation compared with control group (Snu16 cells; group with phosphorylation suppression of FRS2 and without influence on phosphorylation of Shp2 and/or Grb2, P < 0.0001): suppression,
- suppression of Shp2 and Grb2 protein phosphorylation (Shp2 and Grb2): more than 10 times
- phosphorylation of FGFR2 (FGFR2 [5]): did not suppress

Compound: O=C(O)c1cccc(Nc2cccc3ncccc23)c1 [Inhibitor XI, 3-(quinoline-5-ylamine)benzoic acid]
- transmission of the signal from FGFR to FRS2 (FRS2 [2]): interfere with transmission of the signal from FGFR to FRS2

Compound: Bevacizumab: standard object blocking VEGF-stimulated angiogenesis, 10 mg/kg [reference compound]
- angiogenesis in the implants containing VEGF [6]: completely blocked
- angiogenesis stimulated by bFGF [7]: but not angiogenesis induced by bFGF
